Measurements from patent US8598120B2 (Amylin Pharmaceuticals, LLC, priority 2004, dated 2013).

How the values were obtained:
[1] = Pentagastrin-stimulated gastric acid secretion in gastric fistula rats; assay type: in vivo; settings: for ED50 for the acid-suppressive effect: s.c.
Protocol: The experiments were performed during the light cycle. The rats, fed rat chow (Teklad L M 485, Madison, Wis.), were fasted for approximately 20 hours before experimentation. They were given water ad libitum until the start of the experiment.
The rats (age 9-14 weeks, body mass 264-395 g) were surgically fitted with double gastric fistulae by the supplier (Zivic Miller, Catalog number SCAO3.00). During laparotomy under halothane anesthesia, a grommet-shaped double lumen plug was sutured into the stomach wall. Two silastic 2.3 mm internal diameter (entry and exit) cannulae connected to the plug and communicating with the gastric lumen were tracked through the abdominal wall, subcutaneously to the interscapular region where they were separately exteriorized. The laparotomy wound was closed with clips, the rat was placed in a heated recovery cage for one day with free access to water. Thereafter, the rats were housed singly with free access to water and rat chow until they were subjected to overnight fasting for experiments which were performed on conscious rats, about 10-15 days after surgery.
Gastric catheters were uncapped and attached to flexible PE240 tubing for injection and sampling. To ensure patency of the catheters, 2-3 mL of saline solution at room temperature was injected and immediately withdrawn from the stomach. This was repeated until flow was easy and the effluent was clean. Gastric acid secretion was measured at 10 min intervals by injecting 5 mL saline and 2 mL air via one catheter, then immediately withdrawing the same via the other catheter. In this way errors due to incomplete aspiration of the small, secreted volume could be minimized. Three mL of each gastric aspirate were titrated to pH 7.0 with 0.01 N sodium hydroxide using a pH meter (Beckman model number PHI34 Fullerton, Calif.). The amount of base required for each titration, corrected for the total volume aspirated, was used to calculate the moles of acid in each sample.

[2] = Ethanol-induced gastric mucosal injury (gastroprotection); assay type: in vivo, rats; settings: for ED50 for the gastroprotective effect: s.c.
Protocol: Thirty min after gavage, each rat was anesthetized with 5% halothane, the stomach excised, opened along the lesser curvature and everted to expose the mucosa. The everted stomachs were gently rinsed with saline and immediately graded for mucosal damage by each of 10 observers blinded to the experimental treatment.
Stomachs were excised and graded for injury 30 min after ethanol gavage, as described above. The result is provided in the next to the last bar of FIG. 11A.
Stomachs were excised and graded for injury 30 min after ethanol gavage, as described above, and blood was taken for plasma glucose measurement. The injury response was also measured in glucose-treated rats coadministered a 3 mg intravenous bolus of AC187 (n=9).

[3] = in vivo; cited from earlier work
[4] = Ghrelin assay (plasma total and active ghrelin); assay type: in vivo, rats
Protocol: All experiments were performed in the light cycle. Animals were fasted for approximately 20 hours before experimentation. All animals were given free access to water until the start of the experiment. The animals' tails were anesthetized with 20% benzocaine (Hurricaine, Beutlich Pharmaceutical, Waukegan, Ill.), and blood samples were collected from the tail vein. Total and active ghrelin concentrations were measured using Linco RIA kits GHRA-89HK and GHRA-88HK, respectively.
In study 1, HSD rats were subjected to periodic blood sampling from the topically anesthetized tail and ghrelin levels were assayed. […] The blood samples were analyzed for total and active (acylated) ghrelin (Linco).
Blood plasma samples were collected at least at times 0, 10, 20, 30, 60, and 90 min.

[5] = 100 μg, one hour after amylin injection

Row | Substance | rate of acid secretion as % of the basal rate that preceded pentagastrin injection [1, 5] [%] | reduction of pentagastrin-stimulated secretion of acid [1, 5] [%] | gastric acid production (FIG. 10A) ([1]; injected 40 min after pentagastrin, 0.1-100 μg) | ED50 for the acid-suppressive effect [1] [pmol/kg] | ED50 for the acid-suppressive effect ([1]; ±0.15 log units) [μg/rat] | reduction of injury score ([2]; doses of 0.3 μg and higher) [%] | ED50 for the gastroprotective effect [2] [pmol/kg] | protection of the stomach from mucosal injury (FIG. 11C) ([2]; s.c. before ethanol gavage, P<0.05 with doses of 0.1 μg and higher) | ED50 for the gastroprotective effect ([2]; ±0.40 log units) [µg] | onset of effect in food intake assays [3] [min] | time course of effect in food intake assays [3] | reduction of active ghrelin (FIG. 8A) ([4]; 10 μg s.c. 20 min after pentagastrin […], within 1 hour) [%] | plasma ghrelin, amylin alone without pentagastrin (FIG. 8B) ([4]; 30 μg/kg s.c., no pentagastrin) | total plasma ghrelin compared to saline control (FIGS. 8B, 8C) ([4]; 30 μg/kg s.c., with or without pentagastrin)
1 | Amylin: amylin peptide hormone as summarised from the literature (Table 1, background), species not stated (KCNTATCATQRLANFLVHSSNNFGAILSSTNVGSNTY; Islet amyloid polypeptide; UniProt P10997 34-70, looked up) | 32 | 93.4±2.6 | dose-dependently inhibited gastric acid production | 41 | 0.05 | 67 | 31 | dose-dependently protected the stomach from mucosal injury | 0.036 | ≤ 30 | its effect tapers off after 60 minutes |  |  | 
2 | KCNTATCATQRLANFLVRSSNNLGPVLPPTNVGSNTY (listed as Rattus sp.) [rat amylin] |  |  |  |  |  |  |  |  |  |  |  | ~50 | plasma ghrelin was reduced compared to the control | reduction in total plasma ghrelin
